Assays:
[1] = Ring tensiometer
[2] = xn = mol fraction of the nth substance listed; conditions: Ring tensiometer

CC(C)(C)O [2-methylpropan-2-ol]
[1]
Conditions	surface tension liquid-gas [mN/m]
298.15 K	19.96
308.15 K	19.26
318.15 K	18.35
328.15 K	17.62

CC(C)(C)O [2-methylpropan-2-ol] + C[S+](C)[O-]
surface tension liquid-gas [mN/m], [2]
Conditions	298.15 K	308.15 K	318.15 K	328.15 K
x1 = 0.0183	39.25	38.29	37.56	36.51
x1 = 0.0361	36.85	36.01	35.32	34.28
x1 = 0.0695	34.2	33.39	32.73	31.66
x1 = 0.1008	32.36	31.54	30.78	29.89
x1 = 0.1301	31.04	30.17	29.53	28.54
x1 = 0.1832	29.19	28.35	27.71	26.83
x1 = 0.2302	28.08	27.23	26.53	25.71
x1 = 0.3096	26.31	25.51	24.96	24.17
x1 = 0.4022	24.98	24.21	23.69	22.86
x1 = 0.4928	23.72	23.02	22.37	21.63
x1 = 0.5736	22.87	22.01	21.36	20.63
x1 = 0.6322	22.19	21.4	20.85	20.06
x1 = 0.6767	21.72	21.02	20.47	19.71
x1 = 0.7115	21.51	20.85	20.18	19.38
x1 = 0.8511	20.64	19.92	19.03	18.26
x1 = 1	19.96	19.26	18.35	17.62

CC(C)CCO [3-methylbutan-1-ol]
[1]
Conditions	surface tension liquid-gas [mN/m]
298.15 K	22.83
308.15 K	22.02
318.15 K	21.3
328.15 K	20.49

CC(C)CCO [3-methylbutan-1-ol] + C[S+](C)[O-]
surface tension liquid-gas [mN/m], [2]
Conditions	298.15 K	308.15 K	318.15 K	328.15 K
x1 = 0.0033	41.6	40.66	39.65	38.38
x1 = 0.0065	40.98	40.12	39.19	37.83
x1 = 0.0129	40.07	39.09	38.42	37.08
x1 = 0.0255	38.5	37.78	37.05	35.84
x1 = 0.0377	37.32	36.8	35.85	34.87
x1 = 0.0783	34.25	33.78	32.99	32.37
x1 = 0.1307	31.96	31.49	30.9	30.18
x1 = 0.1774	30.51	30	29.39	28.79
x1 = 0.2572	28.72	28.06	27.39	26.8
x1 = 0.323	27.65	27.06	26.37	25.6
x1 = 0.378	26.87	26.28	25.59	24.91
x1 = 0.4456	26	25.48	24.78	23.98
x1 = 0.4999	25.54	24.81	24.06	23.39
x1 = 0.5578	25	24.23	23.51	22.81
x1 = 0.6036	24.54	23.78	22.99	22.19
x1 = 0.6491	24.14	23.36	22.7	21.82
x1 = 0.6851	23.81	23.11	22.46	21.51
x1 = 0.786	23.42	22.69	22.01	21.16
x1 = 0.8875	23.16	22.41	21.64	20.89
x1 = 0.9511	22.95	22.2	21.46	20.68
x1 = 1	22.83	22.02	21.3	20.49

C[S+](C)[O-] [dimethyl sulfoxide]
[1]
Conditions	surface tension liquid-gas [mN/m]
298.15 K	42.28
308.15 K	41.18
318.15 K	40.14
328.15 K	38.93

C[S+](C)[O-] [dimethyl sulfoxide] + CC(C)(C)O
[2], x2 = 0
Conditions	surface tension liquid-gas [mN/m]
298.15 K	42.28
308.15 K	41.18
318.15 K	40.14
328.15 K	38.93

C[S+](C)[O-] [dimethyl sulfoxide] + CC(C)CCO
[2], x2 = 0
Conditions	surface tension liquid-gas [mN/m]
298.15 K	42.28
308.15 K	41.18
318.15 K	40.14
328.15 K	38.93

— the NIST ThermoML archive (doi:10.1016/j.jct.2014.06.005)
